{"source": "patent US7235557B2", "about": "“Compounds and their uses” (MGI GP, Inc., priority 2000, dated 2007)", "key": {"[1]": {"target": "PARP (Homo sapiens, UniProt P09874)", "sequence (P09874 whole entry)": "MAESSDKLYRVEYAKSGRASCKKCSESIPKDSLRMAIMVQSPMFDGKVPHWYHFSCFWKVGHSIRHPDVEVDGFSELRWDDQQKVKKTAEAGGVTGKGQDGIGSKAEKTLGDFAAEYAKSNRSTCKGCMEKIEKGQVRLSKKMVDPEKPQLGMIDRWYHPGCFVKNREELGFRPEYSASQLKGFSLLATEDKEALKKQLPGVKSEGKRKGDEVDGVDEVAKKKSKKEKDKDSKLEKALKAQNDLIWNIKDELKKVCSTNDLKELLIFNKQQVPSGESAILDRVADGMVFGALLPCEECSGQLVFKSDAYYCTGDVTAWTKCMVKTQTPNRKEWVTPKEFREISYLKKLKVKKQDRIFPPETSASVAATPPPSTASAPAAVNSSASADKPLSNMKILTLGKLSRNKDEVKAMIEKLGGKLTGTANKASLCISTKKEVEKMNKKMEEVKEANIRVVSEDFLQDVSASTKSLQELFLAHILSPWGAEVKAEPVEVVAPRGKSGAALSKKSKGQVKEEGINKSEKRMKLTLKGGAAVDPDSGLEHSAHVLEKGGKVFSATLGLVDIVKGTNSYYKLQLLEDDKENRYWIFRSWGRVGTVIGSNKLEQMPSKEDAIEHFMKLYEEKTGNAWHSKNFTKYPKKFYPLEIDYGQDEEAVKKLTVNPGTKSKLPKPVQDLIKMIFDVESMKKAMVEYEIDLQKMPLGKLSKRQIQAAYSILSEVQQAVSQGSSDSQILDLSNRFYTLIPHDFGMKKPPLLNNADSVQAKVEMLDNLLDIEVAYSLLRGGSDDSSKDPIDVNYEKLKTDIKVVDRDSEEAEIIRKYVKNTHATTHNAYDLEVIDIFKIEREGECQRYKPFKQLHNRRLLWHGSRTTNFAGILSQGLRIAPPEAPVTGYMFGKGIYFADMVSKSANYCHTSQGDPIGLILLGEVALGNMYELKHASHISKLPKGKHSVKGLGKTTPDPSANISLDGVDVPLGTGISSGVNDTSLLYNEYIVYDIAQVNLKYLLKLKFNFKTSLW", "settings": "read-out: IC50 for inhibiting PARP; reported by Suto et al.; cited from earlier work"}, "[2]": {"test_system": "infarct size caused by ischemia and reperfusion of the heart", "settings": "rabbits, cited from earlier work"}, "[3]": {"test_system": "MSU crystal induced neutrophil migration", "experiment": "MSU crystal-induced neutrophil recruitment (peritonitis, gout model)", "type": "in vivo, Swiss albino mice", "protocol": "Male outbread Swiss albino mice (20–22 g body weight) were purchased from Banton and Kingsman (T.O. stain; Hull, Humberside) and maintained on a standard chow pellet diet with tap water ad libitum and a 12:00 h light/dark cycle. All animals were housed for 1 week prior to experimentation to allow body weight to reach 28–30 g.\n1,11b-dihydrobenzopyrano[4,3,2-de]isoquinolin-1-one, as an example PARP inhibitor, was dissolved in 100% DMSO at room temperature at a concentration of 45 mg in 2 ml. The compound was then injected into the peritoneal cavity, so as each mouse received a single dose corresponding to 45 mg/2 ml/kg (e.g. 60 μl for a mouse of 30 g). Control mice received DMSO at 2 ml/kg i.p. A third group of mice which were left untreated were added to control for potential effects of the vehicle. The study involved therefore, the following three groups: group A, untreated mice, n=6, group B, DMSO-treated mice, n=8, and group C, mice treated with 1,11b-dihydrobenzopyrano[4,3,2-de]isoquinolin-1-one, n=8.\nMSU crystal-induced neutrophil recruitment was tested as follows. In all cases, mice were treated 1 h after the treatment noted above, with MSU crystals. A homogenous suspension of MSU crystals was obtained by a 30 min rotation. Peritonitis was induced by injection of 3 mg MSU crystals in 0.5 ml PBS (0.1 M, pH 7.4), and the recruitment of neutrophils into the cavity evaluated at the 6 h time point (Getting et al., 1997, J. Pharmacol. Exp. Ther. 283: 123–130). […]\nAn aliquot (100 μl) of the lavage fluid was then diluted 1:10 in Turk's solution (0.01% crystal violet in 3% acetic acid). The samples were then vortexed and 10 μl of the stained cell solution were placed in a Neubauer haematocymometer and neutrophils numbers counted using a light microscope (Olympus B061). […]\nData are shown for single mice, and also shown as mean±S.E. of (n) mice per group. Statistical differences were determined by ANOVA, plus Bonferroni test A P value<0.05 was taken as significant."}, "[4]": {"test_system": "focal cerebral ischemia", "experiment": "Focal cerebral ischemia (MCA cauterization with temporary bilateral CCA occlusion), infarct volume", "type": "in vivo, male Long-Evans rats", "settings": "24 h, mean±SD", "protocol": "Focal cerebral ischemia is produced by cauterization of the right distal MCA (middle cerebral artery) with bilateral temporary common carotid artery occlusion in male Long-Evans rats for 90 minutes. All procedures performed on the animals are approved by the University Institutional Animal Care and Use Committee of the University of Pennsylvania. A total of 42 rats (weights: 230–340 g) obtained from Charles River were used in this study. The animals fasted overnight with free access to water prior to the surgical procedure.\nTwo hours prior to MCA occlusion, varying amounts (control, n=14; 5 mg/kg, n=7; 10 mg/kg, n=7; 20 mg/kg, n=7; and 40 mg/kg, n=7) of the compound, 3,4-dihydro-5-[4-(1-piperidinyl)-butoxy]-1(2H)-isoquinolinone (“DPQ”) were dissolved in dimethyl sulfoxide (DMSO) using a sonicator. A volume of 1.28 ml/kg of the resulting solution was injected intraperitoneally into […].\nFocal cerebral ischemia was produced by cauterization of the distal portion of the right MCA with bilateral temporary common carotid artery (CCA) occlusion by the procedure of Chen et al., “A Model of Focal Ischemic Stroke in the Rat: Reproducible Extensive Cortical Infarction”, Stroke 17:738–43 (1986) and/or Liu et al., “Polyethylene Glycol-conjugated Superoxide Dismutase and Catalase Reduce Ischemic Brain Injury”, Am. J. Physiol. 256:H589–93 (1989), both of which are hereby incorporated by reference.\nSpecifically, bilateral CCA's were isolated, and loops made from polyethylene (PE-10) catheter were carefully passed around the CCA's for later remote occlusion. The incision made previously for placement of the laser doppler probe was extended to allow observation of the rostral end of the zygomatic arch at the fusion point using a dental drill, and the dura mater overlying the MCA was cut. […] The burr hole was covered with a small piece of Gelform, and the wound was sutured to maintain the brain temperature within the normal or near-normal range.\nAfter 90 minutes of occlusion, the carotid loops were released, the tail arterial catheter was removed, and all of the wounds were sutured. Gentamicin sulfate (10 mg/ml) was topically applied to the wounds to prevent infection. […]\nTwo hours after MCA occlusion, the animals were given the same doses of the PARP inhibitor as in the pre-treatment. […] To avoid artifacts due to edema, the damaged area was calculated by subtracting the area of the normal tissue in the hemisphere ipsilateral to the stroke from the area of the hemisphere contralateral to the stroke, by the method of Swanson et al., “A Semiautomated Method for Measuring Brain Infarct Volume”, J. Cereb. […] The total volume of infarction was calculated by summation of the damaged volume of the brain slices."}, "[5]": {"target": "T1, purified recombinant human PARP (Homo sapiens, UniProt P09874)", "T1 construct": "purchased Trevigan (Gaithersburg, Md.)", "T1 sequence (P09874 whole entry)": "as above", "experiment": "PARP enzyme assay (IC50)", "type": "biochemical", "settings": "approximate IC50 values, [3H]NAD", "protocol": "The reaction is initiated by adding enzyme and incubating the mixture at 25° C. After 2 minutes of incubation, the reaction is terminated by adding 500 microliters of ice cold 30% (w/v) trichloroacetic acid. The precipitate formed is transferred onto a glass fiber filter Packard Unifilter-GF/C) and washed three times with 70% ethanol. After the filter is dried, the radioactivity is determined by scintillation counting."}}, "note": "Several values for one entry are separate records, joined by “and”; a condition that tells them apart may be missing. Equal values may be shown once. Read-outs that look alike come from different tables or passages of the source.", "data": [{"smiles": "O=C1NCCc2c(OCCCCN3CCCCC3)cccc21", "note": "[3,4-dihydro-5-[4-(1-piperidinyl)butoxy]-1(2H)-isoquinolinone]", "values": [{"measurement": "IC50", "setting": "[1]", "result": 40, "unit": "nM"}]}, {"smiles": "Oc1cccc2c(O)nccc12", "note": "[1,5-dihydroxyisoquinoline]", "values": [{"measurement": "reduction in infarct size", "setting": "[2]; 1 mg/kg", "result": "38–48%"}]}, {"smiles": "O=C1N=Cc2cccc3c2C1c1ccccc1O3", "note": "(stereo not shown) [1,11b-dihydrobenzopyrano[4,3,2-de]isoquinolin-1-one]", "values": [{"measurement": "inhibition of cell influx vs. the vehicle group", "setting": "[3]; 45 mg/kg i.p., 6 h", "result": 55, "unit": "%"}, {"measurement": "Neutrophil Numbers (single mice)", "setting": "[3]; group C, 45 mg/kg i.p. 1 h prior to 3 mg MSU crystals, 6 h time-point, one value per mouse, 45 mg/kg", "result": "2.4 10^6 per mouse (2×) and 3.0 10^6 per mouse (2×) and 2.7 10^6 per mouse and 2.1 10^6 per mouse (2×) and 5.1 10^6 per mouse"}, {"measurement": "Neutrophils (10^6 per mouse)", "setting": "[3]; group C, 45 mg/kg i.p., MSU crystals (3 mg), 6 h, mean ± S.E. of (n) mice, vehicle 6.30 ± 0.33", "result": "2.85 ± 0.34 (8)* 10^6 per mouse"}]}, {"smiles": "NC(=O)c1cccc(N)c1", "note": "[3-amino-benzamide]", "values": [{"measurement": "reduction in infarct size in the heart", "setting": "[2]; single injection 10 mg/kg, one minute before occlusion or before reperfusion", "result": "32–42%"}]}, {"smiles": "O=C1NCCc2c(OCCCCN3CCCCC3)cccc21", "note": "[DPQ, 3,4-dihydro-5-[4-(1-piperidinyl)-butoxy]-1(2H)-isoquinolinone]", "values": [{"measurement": "damaged volume (infarct volume)", "setting": "[4]; 5 mg/kg i.p. 2 h before and 2 h after MCA occlusion, control 165.2±34.0", "result": "106.7±23.2", "unit": "mm^3"}, {"measurement": "damaged volume (infarct volume)", "setting": "[4]; 10 mg/kg i.p. 2 h before and 2 h after MCA occlusion, control 165.2±34.0", "result": "76.4±16.8", "unit": "mm^3"}, {"measurement": "damaged volume (infarct volume)", "setting": "[4]; 20 mg/kg i.p. 2 h before and 2 h after MCA occlusion, control 165.2±34.0", "result": "110.2±42.0", "unit": "mm^3"}, {"measurement": "damaged volume (infarct volume)", "setting": "[4]; 40 mg/kg i.p. 2 h before and 2 h after MCA occlusion, not significant vs control", "result": "135.6±44.8", "unit": "mm^3"}]}, {"smiles": "O=C1NCCn2c(CN3CCCCC3CO)nc3cccc1c32", "note": "(stereo not shown)", "values": [{"measurement": "IC50", "setting": "[5]; read-out: IC50", "result": 0.337, "unit": "µM"}]}, {"smiles": "O=C1NCCn2c(-c3ccc(O)cc3O)nc3cccc1c32", "values": [{"measurement": "IC50", "setting": "[5]; read-out: IC50", "result": 0.186, "unit": "µM"}]}, {"smiles": "O=C1NCCn2c(-c3ccc4ccccc4c3)nc3cccc1c32", "values": [{"measurement": "IC50", "setting": "[5]; read-out: IC50", "result": 0.032, "unit": "µM"}]}, {"smiles": "O=C1NCCn2c(CN3CCN(c4ccccc4)CC3)nc3cccc1c32", "values": [{"measurement": "IC50", "setting": "[5]; read-out: IC50", "result": 1.9, "unit": "µM"}]}, {"smiles": "COCc1nc2cccc3c2n1CCNC3=O", "values": [{"measurement": "IC50", "setting": "[5]; read-out: IC50", "result": 0.227, "unit": "µM"}]}, {"smiles": "O=C(NCCN1CCCCC1)c1cccc(-c2nc3cccc4c3n2CCNC4=O)c1", "values": [{"measurement": "IC50", "setting": "[5]; read-out: IC50", "result": 0.376, "unit": "µM"}]}, {"smiles": "CCN(CC)CCCNC(=O)c1cccc(-c2nc3cccc4c3n2CCNC4=O)c1", "values": [{"measurement": "IC50", "setting": "[5]; read-out: IC50", "result": 0.179, "unit": "µM"}]}, {"smiles": "O=C1NCCn2c(Cc3ccccc3)nc3cccc1c32", "values": [{"measurement": "IC50", "setting": "[5]; IC50 (μM)", "result": 0.108, "unit": "µM"}]}, {"smiles": "O=C1NCCn2c(-c3cccc(Cl)c3)nc3cccc1c32", "values": [{"measurement": "IC50", "setting": "[5]; read-out: IC50", "result": 0.08, "unit": "µM"}]}, {"smiles": "O=C1NC=Cc2c[nH]c3cccc1c23", "values": [{"measurement": "IC50", "setting": "[5]; read-out: IC50", "result": 0.161, "unit": "µM"}]}, {"smiles": "COc1ccc(/C=C/c2nc3cccc4c3n2CCNC4=O)cc1", "values": [{"measurement": "IC50", "setting": "[5]; read-out: IC50", "result": 0.142, "unit": "µM"}]}, {"smiles": "Nc1ccc(C2CNC(=O)c3cccc4[nH]cc2c34)cc1", "note": "(stereo not shown)", "values": [{"measurement": "IC50", "setting": "[5]; read-out: IC50", "result": 0.172, "unit": "µM"}]}, {"smiles": "O=c1[nH]c2ccc(N3CCN(CC4CCCO4)CC3)nc2c2ccccc12", "note": "(stereo not shown)", "values": [{"measurement": "IC50", "setting": "[5]; read-out: IC50", "result": 0.179, "unit": "µM"}]}, {"smiles": "O=C(O)c1cccc(-c2nc3cccc4c3n2CCNC4=O)c1", "values": [{"measurement": "IC50", "setting": "[5]; read-out: IC50", "result": 0.155, "unit": "µM"}]}, {"smiles": "CC(C)(C)OC(=O)Cn1c(Br)c2c3c(cccc31)C(=O)NN=C2", "values": [{"measurement": "IC50", "setting": "[5]; read-out: IC50", "result": 24.1, "unit": "µM"}]}, {"smiles": "O=C1NCCn2c(-c3ccc(-c4ccc(Cl)cc4)o3)nc3cccc1c32", "values": [{"measurement": "IC50", "setting": "[5]; read-out: IC50", "result": 0.96, "unit": "µM"}]}, {"smiles": "O=C1NCCn2c(-c3cccc(C(=O)N4CC5CC4CN5Cc4ccccc4)c3)nc3cccc1c32", "note": "(stereo not shown)", "values": [{"measurement": "IC50", "setting": "[5]; read-out: IC50", "result": 0.405, "unit": "µM"}]}, {"smiles": "O=C(NCCN1CCCC1)c1cccc(-c2nc3cccc4c3n2CCNC4=O)c1", "values": [{"measurement": "IC50", "setting": "[5]; read-out: IC50", "result": 0.321, "unit": "µM"}]}, {"smiles": "O=C1NCCn2c(-c3ccc(-c4cccc(Cl)c4)o3)nc3cccc1c32", "values": [{"measurement": "IC50", "setting": "[5]; read-out: IC50", "result": 0.2, "unit": "µM"}]}, {"smiles": "O=C1NCCn2c(-c3cccnc3)nc3cccc1c32", "values": [{"measurement": "IC50", "setting": "[5]; read-out: IC50", "result": 0.168, "unit": "µM"}]}, {"smiles": "COc1cc2c(cc1OC)CN(Cc1nc3cccc4c3n1CCNC4=O)CC2", "values": [{"measurement": "IC50", "setting": "[5]; read-out: IC50", "result": 0.713, "unit": "µM"}]}]}
